Assay: Stability in simulated intestinal fluid
Type: physicochemical

CC[C@H]1OC(=O)[C@H](C)[C@@H](O[C@H]2C[C@@](C)(OC)[C@@H](O)[C@H](C)O2)[C@H](C)[C@@H](O[C@@H]2O[C@H](C)C[C@H](N(C)C)[C@H]2O)[C@](C)(O)C[C@@H](C)C(=O)[C@H](C)[C@@H](O)[C@]1(C)O [erythromycin]
half-life: 7.97 h
